System: 648629-189-R-J1-PDC spheroids with HUVEC/MSC, viability
Experiment: Anticancer human tumor 648629-189-R-J1-PDC patient-derived bladder carcinoma cell line growth inhibition [PI3K]
Details: for viability, T/C: stronger effect = lower value
Text: Combinatorial screen of targeted agents with the PI3K inhibitors inavolisib, alpelisib, duvelisib, and copanlisib in multi-cell type tumor spheroids
A high-throughput screen of multi-cell type tumor spheroids was designed to identify active combinations of targeted small molecules and PI3K pathway inhibitors. Complex spheroids include a stromal component modeled by human endothelial cells (HUVEC) and fibroblasts modeled by human mesenchymal stem cells (MSCs). The concentration ranges selected for each drug and investigational agent were based upon clinically achievable concentrations if the clinical Cmax of the agent was known.
Compounds. The drugs and investigational agents: inavolisib (NSC800729), alpelisib (NSC765974), duvelisib (NSC772469), copanlisib (NSC816437), ipatasertib (NSC767898), afuresertib (NSC778305), talazoparib (NSC767125), sapanisertib (NSC764658), selumetinib (NSC741078), tovorafenib (DAY101, NSC766906), vemurafenib (NSC761431), ravoxertinib (NSC781343), sotorasib (NSC818433), MRTX1133 (NSC 836407), abemaciclib (NSC 768073), palbociclib (NSC758247), venetoclax (NSC 766270), SY5609 (NSC837396), enzalutamide (NSC755605), and darolutamide (NSC825331), were obtained from the National Cancer Institute (NCI) Developmental Therapeutics Program Chemical Repository. The FDA-approved anticancer drug set is available from the NCI Developmental Therapeutics Program. […] The stock solutions were prepared in dimethyl sulfoxide (DMSO, Sigma-Aldrich, St. Louis, MO, cat. D2650) at 800-fold the tested concentration and stored at -70 degrees C prior to their use. All drugs and investigational agents were tested over a range starting from a high concentration at or near the clinical Cmax and decreasing in half-log increments. If the clinical Cmax for an agent had not been determined, the highest concentration tested was 10 microM.
Cell Culture. All cells were maintained in an incubator at 37 degrees C and 5% CO2 with 95% humidity. The PDC lines were cultured according to standard operating procedures established by the NCI PDMR (https://pdmr.cancer.gov/sops/default.htm). All PDCs were thawed and cultured in Matrigel-coated flasks prepared with a working solution of 1X Ham's F-12 nutrient mix, without supplementation (Invitrogen, Waltham, MA, cat. 11765054), 100 U/mL penicillin-streptomycin (Invitrogen, cat. 15140122), and 2.5% Matrigel (Corning Inc., Corning, NY, cat. 354248) for the first three passages. The 354836-022-R-J1-PDC, 475296-252-R-J1-PDC, and 997726-040-R-J2-PDC lines were cultured in 6A media, which includes advanced DMEM/F-12 (Thermo Fisher Scientific, cat. 12634028), 10 mM HEPES (Thermo Fisher Scientific, cat. 15630080), 1X GlutaMAX supplement (Thermo Fisher Scientific, cat. 35050061), 0.1 mg/mL primocin (InvivoGen, San Diego, CA, cat. ant-pm-2), 10% defined fetal bovine serum, heat inactivated (HyClone Laboratories Inc., Logan, UT, cat. SH30070.03HI), 50% L-WRN conditioned media (ATCC, cat. CRL-3276), 1.25 mM N-Acetyl-L-cysteine (Sigma-Aldrich, cat. A9165), 10 mM nicotinamide (Sigma-Aldrich, cat. N0636), 1X B-27 supplement (Thermo Fisher Scientific, cat. 17504044), 1X N-2 supplement (Thermo Fisher Scientific, cat. 17502048), and 10 microM Y-27632 dihydrochloride (Tocris Bioscience, Bristol, United Kingdom, cat. 1254). The 624824-186-R-J2-PDC line was cultured in 6C/Colon 1B media, which includes all 6A media components plus 50 ng/mL human EGF recombinant protein (Thermo Fisher Scientific, cat. PHG0311). […]

[1] = curve of first compound, second compound 0.0316 µM
[2] = curve of first compound, second compound 0.1 µM
[3] = curve of first compound, second compound 0.316 µM
[4] = curve of first compound, second compound 1 µM
[5] = second compound 0.0316 µM, first compound 0.0316 µM
[6] = second compound 0.0316 µM, first compound 0.1 µM
[7] = second compound 0.0316 µM, first compound 0.316 µM
[8] = second compound 0.0316 µM, first compound 1 µM
[9] = second compound 0.0316 µM, first compound 3.16 µM
[10] = second compound 0.0316 µM, first compound 10 µM
[11] = second compound 0.1 µM, first compound 0.0316 µM
[12] = second compound 0.1 µM, first compound 0.1 µM
[13] = second compound 0.1 µM, first compound 0.316 µM
[14] = second compound 0.1 µM, first compound 1 µM
[15] = second compound 0.1 µM, first compound 3.16 µM
[16] = second compound 0.1 µM, first compound 10 µM
[17] = second compound 0.316 µM, first compound 0.0316 µM
[18] = second compound 0.316 µM, first compound 0.1 µM
[19] = second compound 0.316 µM, first compound 0.316 µM
[20] = second compound 0.316 µM, first compound 1 µM
[21] = second compound 0.316 µM, first compound 3.16 µM
[22] = second compound 0.316 µM, first compound 10 µM
[23] = second compound 1 µM, first compound 0.0316 µM
[24] = second compound 1 µM, first compound 0.1 µM
[25] = second compound 1 µM, first compound 0.316 µM
[26] = second compound 1 µM, first compound 1 µM
[27] = second compound 1 µM, first compound 3.16 µM
[28] = second compound 1 µM, first compound 10 µM
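Note: spheroids exposed to agents for seven days before reading.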
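Throughout, for viability, T/C: percent of vehicle control luminescence where 100% = DMSO treated spheroids.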

Molecule `C[C@@H](NC(=O)c1ncnc(N)c1Cl)c1ncc(C(=O)Nc2cc(C(F)(F)F)c(Cl)cn2)s1` + CC(Nc1ccc2c(c1)OCCn1cc(N3C(=O)OCC3C(F)F)nc1-2)C(N)=O has an IC50 (curve of first compound, second compound 0.00316 µM) of over 10000 nM, an IC50 (curve of first compound, second compound 0.01 µM) of over 10000 nM and an IC50 [1] of over 10000 nM. For the same molecule, the IC50 [2] was over 10000 nM, the IC50 [3] was over 10000 nM and the IC50 [4] was over 10000 nM. The viability, T/C (second compound 0.00316 µM, first compound 0.0316 µM) was 106%, the viability, T/C (second compound 0.00316 µM, first compound 0.1 µM) was 99.1% and the viability, T/C (second compound 0.00316 µM, first compound 0.316 µM) was 112%. It also gave a viability, T/C (second compound 0.00316 µM, first compound 1 µM) of 115%, a viability, T/C (second compound 0.00316 µM, first compound 3.16 µM) of 108% and a viability, T/C (second compound 0.00316 µM, first compound 10 µM) of 116%. The viability, T/C (second compound 0.01 µM, first compound 0.0316 µM) was 111%, the viability, T/C (second compound 0.01 µM, first compound 0.1 µM) was 98.8% and the viability, T/C (second compound 0.01 µM, first compound 0.316 µM) was 115%. The viability, T/C (second compound 0.01 µM, first compound 1 µM) was 99.3%, the viability, T/C (second compound 0.01 µM, first compound 3.16 µM) was 112% and the viability, T/C (second compound 0.01 µM, first compound 10 µM) was 101%. The viability, T/C [5] was 109%, the viability, T/C [6] was 105% and the viability, T/C [7] was 97.4%. The viability, T/C [8] was 102%, the viability, T/C [9] was 106% and the viability, T/C [10] was 106%. For the same molecule, the viability, T/C [11] was 103%, the viability, T/C [12] was 97.8% and the viability, T/C [13] was 105%. It also gave a viability, T/C [14] of 110%, a viability, T/C [15] of 98.3% and a viability, T/C [16] of 97.8%. For the same molecule, the viability, T/C [17] was 94.8%, the viability, T/C [18] was 93.9% and the viability, T/C [19] was 83.7%. For the same molecule, the viability, T/C [20] was 86.2%, the viability, T/C [21] was 96.2% and the viability, T/C [22] was 86.4%. It also gave a viability, T/C [23] of 76.2%, a viability, T/C [24] of 74.2% and a viability, T/C [25] of 69.3%. The viability, T/C [26] was 77.2%, the viability, T/C [27] was 78% and the viability, T/C [28] was 65.5%.

For `CCN1CCN(Cc2ccc(Nc3ncc(F)c(-c4cc(F)c5nc(C)n(C(C)C)c5c4)n3)nc2)CC1`, the viability, T/C (compound 0.00316 µM) was 107% [middle of 4 runs], the viability, T/C (compound 0.01 µM) was 96.7% [middle of 4 runs] and the viability, T/C (compound 0.0316 µM) was 103% [middle of 4 runs]. The viability, T/C (compound 0.1 µM) was 103% [middle of 4 runs], the viability, T/C (compound 0.316 µM) was 109% [middle of 4 runs] and the viability, T/C (compound 1 µM) was 117% [middle of 4 runs]. For the same molecule, the IC50 (curve of compound) was over 1000 nM.

In the case of `Cn1ncc(Cl)c1-c1cc(C(=O)NC(CN)Cc2cccc(F)c2)sc1Cl` (stereo unspecified) + Cc1nc(NC(=O)N2CCCC2C(N)=O)sc1-c1ccnc(C(C)(C)C(F)(F)F)c1, the IC50 [1] is reported as 510 nM, the IC50 [2] is reported as 405 nM and the IC50 [3] is reported as 312 nM. For the same molecule, the IC50 [4] was 218 nM, the IC50 (curve of first compound, second compound 3.16 µM) was 75.9 nM and the IC50 (curve of first compound, second compound 10 µM) was under 31.6 nM. The viability, T/C [5] was 105%, the viability, T/C [6] was 97% and the viability, T/C [7] was 55.6%. For the same molecule, the viability, T/C [8] was 34.7%, the viability, T/C [9] was 17.9% and the viability, T/C [10] was 2.36%. For the same molecule, the viability, T/C [11] was 90.8%, the viability, T/C [12] was 76.8% and the viability, T/C [13] was 56.9%. It also gave a viability, T/C [14] of 27.6%, a viability, T/C [15] of 17.5% and a viability, T/C [16] of 1.87%. For the same molecule, the viability, T/C [17] was 89.6%, the viability, T/C [18] was 73.8% and the viability, T/C [19] was 48.2%. It also gave a viability, T/C [20] of 28%, a viability, T/C [21] of 15.1% and a viability, T/C [22] of 1.73%. It also gave a viability, T/C [23] of 72.8%, a viability, T/C [24] of 66.6% and a viability, T/C [25] of 41%. The viability, T/C [26] was 23.3%, the viability, T/C [27] was 13.6% and the viability, T/C [28] was 1.42%. For the same molecule, the viability, T/C (second compound 3.16 µM, first compound 0.0316 µM) was 55.2%, the viability, T/C (second compound 3.16 µM, first compound 0.1 µM) was 50.3% and the viability, T/C (second compound 3.16 µM, first compound 0.316 µM) was 34.4%. It also gave a viability, T/C (second compound 3.16 µM, first compound 1 µM) of 20.5%, a viability, T/C (second compound 3.16 µM, first compound 3.16 µM) of 12.2% and a viability, T/C (second compound 3.16 µM, first compound 10 µM) of 1.25%. The viability, T/C (second compound 10 µM, first compound 0.0316 µM) was 36.9%, the viability, T/C (second compound 10 µM, first compound 0.1 µM) was 31.7% and the viability, T/C (second compound 10 µM, first compound 0.316 µM) was 20.4%. The viability, T/C (second compound 10 µM, first compound 1 µM) was 13.5%, the viability, T/C (second compound 10 µM, first compound 3.16 µM) was 7.71% and the viability, T/C (second compound 10 µM, first compound 10 µM) was 0.35%.

Source: PubChem BioAssay AID1963974 (Molecular Pharmacology Branch, DTP, NCI, 2024)
